The assay deals with BDF1 mice, P388 leukemia ip, median survival T/C. The experiment in a line: NCI In Vivo Anticancer Drug Screen. Data for tumor model P388 Leukemia (intraperitoneal) in B6D2F1 (BDF1) mice. The settings on record: endpoint: median survival time, higher = longer survival. The essentials: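 Reported as T/C, where T is the survival measurement in dosed animals and C the same measurement in vehicle controls.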

Where [1] appears, read: dose: 25.0 mg/kg/injection, schedule: Q01DX009 (ip), vehicle: saline.
[2] abbreviates: dose: 50.0 mg/kg/injection, schedule: Q04DX003 (ip), vehicle: saline with Tween-80.
Where [3] appears, read: dose: 100.0 mg/kg/injection, schedule: Q04DX003 (ip), vehicle: saline with Tween-80.
The mark [4] stands for this setting: dose: 200.0 mg/kg/injection, schedule: Q04DX003 (ip), vehicle: saline with Tween-80.
The mark [5] stands for this setting: dose: 50.0 mg/kg/injection, schedule: Q01DX009 (ip), vehicle: saline with Tween-80.
Where [6] appears, read: dose: 100.0 mg/kg/injection, schedule: Q01DX009 (ip), vehicle: saline with Tween-80.
The mark [7] stands for this setting: dose: 100.0 mg/kg/injection, schedule: Q04DX003 (ip), vehicle: saline.
Where [8] appears, read: dose: 100.0 mg/kg/injection, schedule: Q04DX003 (ip), vehicle: Klucel (hydroxypropylcellulose) (HPC).
Setting [9] is: dose: 200.0 mg/kg/injection, schedule: Q04DX003 (ip), vehicle: Klucel (hydroxypropylcellulose) (HPC).
The mark [10] stands for this setting: dose: 400.0 mg/kg/injection, schedule: Q04DX003 (ip), vehicle: Klucel (hydroxypropylcellulose) (HPC).
Setting [11] is: dose: 100.0 mg/kg/injection, schedule: Q01DX009 (ip), vehicle: Klucel (hydroxypropylcellulose) (HPC).
The mark [12] stands for this setting: dose: 200.0 mg/kg/injection, schedule: Q01DX009 (ip), vehicle: Klucel (hydroxypropylcellulose) (HPC).
The mark [13] stands for this setting: dose: 400.0 mg/kg/injection, schedule: Q01DX009 (ip), vehicle: Klucel (hydroxypropylcellulose) (HPC).

Several values for one entry are separate records, joined by “and”; a condition that tells them apart may be missing. Identical values can stand only once. Toxic doses and inconclusive results are not listed.

In the case of `O=[N+]([O-])[O-].OCCNCCNCC[OH2+].OCCNCCNCC[OH2+].[Cu+2]`, the T/C is 97 % of control (dose: 6.25 mg/kg/injection, schedule: Q01DX009 (ip), vehicle: saline); 100 % of control (dose: 12.5 mg/kg/injection, schedule: Q01DX009 (ip), vehicle: saline); 88 % of control under setting [1].
As for `CCc1ccc(C(C)(C)C)cc1`, the T/C is, setting by setting: under setting [2], 109 % of control; under setting [3], 104 % of control; (dose: 132.0 mg/kg/injection, schedule: Q01DX009 (ip), vehicle: saline with Tween-80) 118 % of control; under setting [4], 100 % of control.
As to `CC(=O)OCC(=O)[C@@]1(O)CC[C@H]2[C@@H]3CCC4=CC(=O)[C@H](C)C[C@]4(C)[C@@]3(F)[C@@H](O)C[C@@]21C`, the T/C (dose: 6.25 mg/kg/injection, schedule: Q01DX009 (ip), vehicle: Klucel (hydroxypropylcellulose) (HPC)) is 109 % of control; the T/C (dose: 12.5 mg/kg/injection, schedule: Q01DX009 (ip), vehicle: Klucel (hydroxypropylcellulose) (HPC)) was 109 % of control; the T/C (dose: 25.0 mg/kg/injection, schedule: Q01DX009 (ip), vehicle: Klucel (hydroxypropylcellulose) (HPC)) is 90 % of control; the T/C (dose: 254.0 mg/kg/injection, schedule: Q01DX001 (ip), vehicle: Klucel (hydroxypropylcellulose) (HPC)) is 100 % of control; the T/C (dose: 385.0 mg/kg/injection, schedule: Q01DX001 (ip), vehicle: Klucel (hydroxypropylcellulose) (HPC)) is 91 % of control.
In the case of `COc1cccc2c1C(=O)c1c(O)c3c(c(O)c1C2=O)C[C@@](O)(/C(C)=N/NC(=O)c1ccc(Cl)cc1)C[C@@H]3OC1CC(N)C(O)C(C)O1` (stereo partly specified), the T/C by setting is: (dose: 0.5 mg/kg/injection, schedule: Q01DX009 (ip), vehicle: water) 110 % of control; (dose: 1.0 mg/kg/injection, schedule: Q01DX009 (ip), vehicle: water) 107 % of control and 214 % of control; (dose: 2.0 mg/kg/injection, schedule: Q01DX009 (ip), vehicle: water) 303 % of control; (dose: 4.0 mg/kg/injection, schedule: Q01DX009 (ip), vehicle: water) 238 % of control and 115 % of control; (dose: 8.0 mg/kg/injection, schedule: Q01DX009 (ip), vehicle: water) 164 % of control.
Consider `S=c1[nH]c2nc(Cl)c(Cl)nc2[nH]1`, for which the T/C reads like this: (dose: 12.5 mg/kg/injection, schedule: Q01DX009 (ip), vehicle: saline with Tween-80) 94 % of control; (dose: 25.0 mg/kg/injection, schedule: Q01DX009 (ip), vehicle: saline with Tween-80) 92 % of control and 115 % of control; under setting [5], 102 % of control; under setting [2], 94 % of control; under setting [6], 94 % of control and 99 % of control; under setting [3], 92 % of control. The T/C runs as follows: under setting [4], 94 % of control; (dose: 300.0 mg/kg/injection, schedule: Q01DX009 (ip), vehicle: saline with Tween-80) 105 % of control.
Consider `COc1cc(C(=O)C=C(C(F)(F)F)C(F)(F)F)cc(OC)c1OC`, for which the T/C under setting [2] is 120 % of control, the T/C under setting [3] was 120 % of control and the T/C under setting [4] was 100 % of control.
As for `CC(=O)Nc1ccc(C(=O)O)c([N+](=O)[O-])c1`, the T/C is 86 % of control under setting [1]; 92 % of control and 106 % of control (dose: 50.0 mg/kg/injection, schedule: Q01DX009 (ip), vehicle: saline); 91 % of control and 100 % of control (dose: 100.0 mg/kg/injection, schedule: Q01DX009 (ip), vehicle: saline); 98 % of control under setting [7]; 106 % of control (dose: 200.0 mg/kg/injection, schedule: Q01DX009 (ip), vehicle: saline); 108 % of control (dose: 200.0 mg/kg/injection, schedule: Q04DX003 (ip), vehicle: saline). In addition, the T/C runs as follows: (dose: 400.0 mg/kg/injection, schedule: Q01DX009 (ip), vehicle: saline) 101 % of control; (dose: 400.0 mg/kg/injection, schedule: Q04DX003 (ip), vehicle: saline) 96 % of control.
Consider `O=C(NCCNc1ccc(F)cc1)C12CC3CC(CC(C3)C1)C2`, for which the T/C by setting is: under setting [5], 91 % of control; under setting [6], 104 % of control; (dose: 200.0 mg/kg/injection, schedule: Q01DX009 (ip), vehicle: saline with Tween-80) 97 % of control.
Regarding `Oc1ccc2ccccc2c1C1=NNc2n[nH]c(=S)n2N1`, the T/C was 104 % of control (dose: 12.5 mg/kg/injection, schedule: Q04DX003 (ip), vehicle: Klucel (hydroxypropylcellulose) (HPC)); 108 % of control (dose: 25.0 mg/kg/injection, schedule: Q04DX003 (ip), vehicle: Klucel (hydroxypropylcellulose) (HPC)); 104 % of control (dose: 50.0 mg/kg/injection, schedule: Q04DX003 (ip), vehicle: Klucel (hydroxypropylcellulose) (HPC)).
For `C=C1C(=O)CCC1/C=C\C` (stereo unspecified), the T/C (dose: 50.0 mg/kg/injection, schedule: Q01DX005 (ip), vehicle: saline with Tween-80) was 97 % of control.
Turning to `O=C(O)COCc1ccccc1`, the T/C was 100 % of control (dose: 100.0 mg/kg/injection, schedule: Q01DX001 (ip), vehicle: saline sonified); 104 % of control (dose: 200.0 mg/kg/injection, schedule: Q01DX001 (ip), vehicle: saline sonified); 117 % of control (dose: 400.0 mg/kg/injection, schedule: Q01DX001 (ip), vehicle: saline sonified).
As for `Cc1cc(=O)cc(C(=O)O)o1`, the T/C (dose: 25.0 mg/kg/injection, schedule: Q04DX003 (ip), vehicle: saline) was 113 % of control; the T/C (dose: 50.0 mg/kg/injection, schedule: Q04DX003 (ip), vehicle: saline) was 100 % of control; the T/C under setting [7] is 90 % of control.
With `O=[N+]([O-])c1ccc(Sc2ccc(Cl)cc2)c2c1no[n+]2[O-]`, the T/C (dose: 15.0 mg/kg/injection, schedule: Q01DX009 (ip), vehicle: saline with Tween-80) was 112 % of control; the T/C (dose: 30.0 mg/kg/injection, schedule: Q01DX009 (ip), vehicle: saline with Tween-80) is 112 % of control; the T/C (dose: 60.0 mg/kg/injection, schedule: Q01DX009 (ip), vehicle: saline with Tween-80) was 112 % of control.
Consider `c1ccc2c(c1)Cc1c(NC3=NCCO3)cccc1-2`, for which the T/C runs as follows: under setting [2], 95 % of control; under setting [3], 95 % of control; under setting [4], 108 % of control; (dose: 400.0 mg/kg/injection, schedule: Q04DX003 (ip), vehicle: saline with Tween-80) 100 % of control.
On to `O=C1c2ccccc2C(=O)c2cc3cc(Cl)ccc3cc21`, for which the T/C reads like this: under setting [8], 90 % of control; under setting [9], 90 % of control; under setting [10], 90 % of control.
Consider `CC1(CBr)Oc2ccccc2O1`, for which the T/C is, setting by setting: under setting [11], 104 % of control; under setting [8], 100 % of control; under setting [12], 108 % of control; under setting [9], 95 % of control; under setting [13], 116 % of control; under setting [10], 108 % of control.
For the compound `c1ccc(C2=C(c3ccccc3)C23SCCS3)cc1`, the T/C under setting [11] was 113 % of control; the T/C under setting [8] was 104 % of control; the T/C under setting [12] is 95 % of control; the T/C under setting [9] was 113 % of control; the T/C under setting [13] was 86 % of control; the T/C under setting [10] was 100 % of control.
Take `COc1cccc2c1C(=O)c1c(O)c3c(c(O)c1C2=O)CC(O)(C(C)=O)CC3OC1CC(NC(=O)CNC(=O)CN(C)C)C(O)C(C)O1` (stereo unspecified): the T/C is, setting by setting: (dose: 1.56 mg/kg/injection, schedule: Q01DX009 (ip), vehicle: water) 101 % of control; (dose: 3.13 mg/kg/injection, schedule: Q01DX009 (ip), vehicle: water) 92 % of control; (dose: 6.25 mg/kg/injection, schedule: Q01DX009 (ip), vehicle: water) 101 % of control; (dose: 12.5 mg/kg/injection, schedule: Q01DX009 (ip), vehicle: water) 91 % of control.
In the case of `C/C=C/N=NNc1ccccc1OC`, the T/C by setting is: (dose: 25.0 mg/kg/injection, schedule: Q04DX003 (ip), vehicle: saline with Tween-80) 113 % of control; under setting [2], 104 % of control; under setting [3], 104 % of control.
For the compound `CN(C)c1ccc(/C=C2\NC(=O)NC2=O)cc1`, the T/C reads like this: (dose: 100.0 mg/kg/injection, schedule: Q01DX001 (ip), vehicle: saline with Tween-80) 103 % of control; (dose: 200.0 mg/kg/injection, schedule: Q01DX001 (ip), vehicle: saline with Tween-80) 97 % of control; (dose: 400.0 mg/kg/injection, schedule: Q01DX001 (ip), vehicle: saline with Tween-80) 95 % of control.

Source of the values: PubChem BioAssay AID328 (DTP/NCI, 2004).
